Consider two molecules from PMC10275983 (Nature Communications, 2023).

One test relates to SARS-CoV-2. The settings on record: combined with ritonavir; initiated within three days of symptom onset; interim results of Phase II-III studies; cited from earlier work. From the text:
Small molecule antivirals offer potential advantages over antibody therapeutics. […] During the early months of the pandemic, huge multinational effort was initiated to repurpose already approved antiviral or immunosuppressive drugs. One such drug was remdesivir, a nucleoside analog chain terminator that blocks replication of viral RNA[17].

In test [1] the test system is SARS-CoV-2/human/Liverpool/REMRQ0001/2020. It is filed as in vivo.

As to `CC(C)(C)[C@H](NC(=O)C(F)(F)F)C(=O)N1C[C@H]2[C@@H]([C@H]1C(=O)N[C@H](C#N)C[C@@H]1CCNC1=O)C2(C)C` [nirmatrelvir], the reduced hospitalization risk in the test with SARS-CoV-2 was 89%.
Turning to `CCC(CC)COC(=O)[C@H](C)N[P@](=O)(OC[C@H]1O[C@@](C#N)(c2ccc3c(N)ncnn23)[C@H](O)[C@@H]1O)Oc1ccccc1` [remdesivir], the “inflammatory markers (cytokine and chemokine transcripts) in lung and nasal turbinate” value in test [1] (K18 hACE2 mice N=4, day 4 post-infection, same dosing, qPCR) was “remained substantially elevated”. Further, in test [1] (mouse, in vivo), the “infectious virus in the lungs (plaque assay on lung homogenate)” value is listed as “only partially decreased viraemia” and the “viral RNA levels in nasal turbinates (qPCR, sub-genomic E gene)” value is on record as “no significant impact”.
